In patent EP2508171B1, “Pharmaceutical magnetic nano-particle composition” (Universitätsklinikum Erlangen, priority 2011, dated 2012):
Where two headings read alike, the source gives them in different places.

Experiment: Biodistribution and biodegradation after i.v. application (HPLC of MTO, SQUID/MRX of iron oxide)
Type: in vivo, New Zealand White Rabbits
Settings: for concentration at 24 h: New Zealand White, rabbit, iv, regular systemic dose of pure MTO (10 mg MTO/m2 body surface), n=6, HPLC
Description: For the animal experiments New Zealand White Rabbits were used. The animals, weighing about 4.5 - 5.2 kg, were treated (i.v.) with ferrofluid bound MTO containing a drug amount of 10% compared to the regular systemic dose which requires 10 mg MTO/m2 body surface (n=5). The other study group (n=6) received the regular systemic dose of pure MTO. After 24h hours the animals were sacrificed and the organs harvested. Complete organs of liver and kidneys were processed and MTO was extracted for HPLC-analysis. Tissue homogenates have also been measured by SQUID.

## O=C1c2c(O)ccc(O)c2C(=O)c2c(NCCNCCO)ccc(NCCNCCO)c21 [pure MTO, mitoxantron]
kidney, read-out: MTO concentration in kidneys
  concentration at 24 h: 8500 ng/g
liver, read-out: MTO concentration in liver tissue
  concentration at 24 h: 190 ng/g
Pure i.v. injection of MTO, regular systemic dose, 24h
  MTO enrichment in kidneys relative to liver: 44 fold
